# Where two headings read alike, the source gives them in different places. Marks after values point to notes of the source that are not given here. Where no end group is shown, it is not given here. mPEG‑SC20k = methoxy polyethylene glycol-succinimidyl-carbonate, 20000 Da
# Key:
# [1] = target: T1, integrin α5β1 (Homo sapiens, UniProt P05556+P08648); assay: Combination with targets through flow cytometry (FITC labeled polypeptide, function-blocking antibody); assay type: binding; settings: Bel-7402 and MCF-7 cells, 2 mg/ml, FIG. 1
# T1 construct: Bel-7402 tumor cells and MCF-7 fusion cultured to 80%; endogenous in cells; host or cells: Bel-7402 and MCF-7 tumor cells
# Procedure: (§1) • (1) Bel-7402 tumor cells and MCF-7 fusion cultured to 80% after the 24-well plate, trypsinized collected, washed with ice-cold PBS twice, the cells were labeled prior containing 1% BSA resuspended in PBS 30 min. • (2) 2 μl mouse anti-human ανβ3 function-blocking monoclonal antibody (1.0 μg/μl, 1:200), mouse anti-human 2 μl α5β1 function-blocking monoclonal antibody (1.0 μg/μl, 1:200) and the cell suspension were incubated at 4° C. 1.5 h. • (3) collected the labeled cells and washed with ice-cold PBS twice, followed by 100 μl FITC labeled polypeptide modified mPEG-SC20k-HM-3 (2 mg/ml) and the cell suspension were incubated at 4° C. incubate 1.5 h • (4) After labeled, the cells were collected and washed with ice-cold PBS 2 times, followed by resuspension with 400 μl PBS and analyzed by flow cytometry, and detected intensity of the FITC fluorescence through channel FL1.
# [2] = target: T2, integrin ανβ3 (Homo sapiens, UniProt P05106+P06756); assay: as above; assay type: binding; settings: Bel-7402 and MCF-7 cells, 2 mg/ml, FIG. 1
# T2 construct: Bel-7402 tumor cells and MCF-7 fusion cultured to 80%; endogenous in cells; host or cells: Bel-7402 and MCF-7 tumor cells
# Procedure: as §1
# [3] = system: human esophageal cancer Ec109 xenograft tumors; assay type: in vivo, nude mice; settings: for Rate of inhibiting tumors / Tumor weight: Once 3 days
# Procedure: Tumor diameter was measured with a vernier caliper. […] Tumor volume formula: […]
# a, b respectively represent the length and width. […] The formula is as follows: […]
# TRTV: Treatment Group RTV; CRTV: Negative Control Group RTV
# [4] = rat, in vivo, iv
# Procedure: (§2) SD rats were randomly divided into six groups with the same number for male and female. Take three groups were administered intravenously integrin antagonist polypeptide with a high dose of 52 mg/kg (equivalent to HM-3 4.2 mg/kg), an intermediate dose of 26 mg/kg (equivalent to HM-3 2.1 mg/kg), a low-dose of 13 mg/kg (equivalent to HM-3 1.05 mg/kg). The other 3 groups were injected HM-3 with a high dose of 4.2 mg/kg, an intermediate dose of 2.1 mg/kg, a low doses of 1.05 mg/kg. Collected whole blood 0.5 ml once from the orbital venous plexus after 0.5 h, 1 h, 2 h, 3 h, 6 h, 12 h, 24 h, 48 h, 72 h, 96 h, 108 h, 132 h of drug administration, and applied heparin to get the effect of anti-coagulation. 12000 rpm/2 min centrifuged plasma. Draw supernatant 200 μl and 80° C. preheated PBS (0.05 M pH7.4) buffer 600 μl and mixed. Bath in the 80° C. water for 30 min. Centrifuged 2 min at 12000 rpm, and collected the supernatant, and stored in the condition of −20° C. Dissolved at room temperature, measured integrin antagonist peptide plasma concentration by ELISA.
# [5] = system: human lung cancer H460 xenograft tumors; assay: Tumor growth inhibition, H460 xenograft; settings: for Rate of inhibiting tumors / Tumor weight: Once 3 days
# Procedure: (§3) Picked the tumor tissue of vigorous growth and was cut into pieces of about 1.5 mm^3. Under sterile conditions, the tumor tissue was inoculated subcutaneously on the right of nude mice. Tumor diameter was measured with a vernier caliper. The animals which had tumors with a size of 100-200 mm^3 were randomly divided into groups. The effect of polypeptide on anti-tumor was dynamically observed through the method of measuring tumor diameter. The times of measuring tumor diameter were once 2 days, and meantime, weighed mice. The mice in experimental group were infused polypeptide through tail vein, once 3 days. The mice in the placebo group were injected saline with the same volume. Tumor volume formula:
# (§4) a, b respectively represent the length and width. According to the result of measurement, calculate the relative tumor volume. Evaluation of antitumor activity is relative tumor proliferation rate T/C(%). The formula is as follows: T/C(%)^=TRTV/CRTV×100%
# (§5) TRTV: Treatment group RTV; CRTV: negative control group RTV
# [6] = system: human kidney cancer A498 xenograft tumors; assay: Tumor growth inhibition, A498 xenograft; settings: for Rate of inhibiting tumors / Tumor weight: Once 3 days
# Procedure: Human kidney cancer A498 cell lines in logarithmic growth phase were picked and made into 5×10^7/ml cell suspension of under sterile conditions, and then 0.1 ml suspension was inoculated subcutaneously at the right armpit of nude mice. Tumor diameter was measured with a vernier caliper. The animals which had tumors with a size of 100-200 mm^3 were randomly divided into groups. The effect of polypeptide on anti-tumor was dynamically observed through the method of measuring tumor diameter. The times of measuring tumor diameter were once 2 days, and meantime, weighed mice. The mice in experimental group were infused polypeptide through tail vein. The mice in the placebo group were injected saline with the same volume, once 1 day; Taxol group: 10 mg/kg, once 1 week; Endostar group: 2.5 mg/kg, once 1 day; The groups of high, intermediate and low polypeptide: 6, 3, 1.5 mg/kg, respectively, once 1 day. After administration, all mice were sacrificed. Stripped the tumors and weighed.
# [7] = system: human testicular cancer 5637 xenograft tumors; assay: Tumor growth inhibition, 5637 xenograft; settings: for Rate of inhibiting tumors / Tumor weight: Once 3 days
# Procedure: Human testicular cancer 5637 cell lines in logarithmic growth phase were picked, and made into 5×10^7/ml cell suspension of under sterile conditions, and then 0.1 ml suspension was inoculated subcutaneously at the right armpit of nude mice. Tumor diameter was measured with a vernier caliper. The animals which had tumors with a size of 100-200 mm^3 were randomly divided into groups. The effect of polypeptide on anti-tumor was dynamically observed through the method of measuring tumor diameter. The times of measuring tumor diameter were once 2 days, and meantime, weighed mice. The mice in experimental group were infused polypeptide through tail vein. […] After administration, all mice were sacrificed. Stripped the tumors and weighed.
# [8] = system: human colon cancer HT-29 xenograft tumors; assay: Tumor growth inhibition, HT-29 xenograft; settings: for Rate of inhibiting tumors / Tumor weight: Once 3 days
# Procedure: Human colon cancer HT-29 cell lines in logarithmic growth phase were picked, and made into 5×10^7/ml cell suspension of under sterile conditions, and then 0.1 ml suspension was inoculated subcutaneously at the right armpit of nude mice. Tumor diameter was measured with a vernier caliper. The animals which had tumors with a size of 100-200 mm^3 were randomly divided into groups. The effect of polypeptide on anti-tumor was dynamically observed through the method of measuring tumor diameter. The times of measuring tumor diameter were once 2 days, and meantime, weighed mice. The mice in experimental group were infused polypeptide through tail vein. The mice in the placebo group were injected saline with the same volume, once 1 day; Taxol group: 10 mg/kg, once 1 week; Endostar group: 2.5 mg/kg, once 1 day; The groups of high, intermediate and low polypeptide: 6, 3, 1.5 mg/kg, respectively, once 1 day. After administration, all mice were sacrificed. Stripped the tumors and weighed.
# [9] = system: human thyroid cancer SW-579 xenograft tumors; assay: Tumor growth inhibition, SW-579 xenograft; settings: for Rate of inhibiting tumors / Tumor weight: Once 3 day
# Procedure: as §3, §4
# [10] = system: human gastric cancer MGC803 xenograft tumors; assay: Tumor growth inhibition, MGC803 xenograft; settings: for Rate of inhibiting tumors / Tumor weight: Once 3 days
# Procedure: as §3, §4, §5
# [11] = system: human bladder cancer HT1376 xenograft tumors; assay: Tumor growth inhibition, HT1376 xenograft; settings: for Rate of inhibiting tumors / Tumor weight: Once 3 days
# Procedure: Human bladder cancer HT1376 cell lines in logarithmic growth phase were picked, and made into 5×10^7/ml cell suspension of under sterile conditions, and then 0.1 ml suspension was inoculated subcutaneously at the right armpit of nude mice. Tumor diameter was measured with a vernier caliper. The animals which had tumors with a size of 100-200 mm^3 were randomly divided into groups. The effect of polypeptide on anti-tumor was dynamically observed through the method of measuring tumor diameter. The times of measuring tumor diameter were once 2 days, and meantime, weighed mice. The mice in experimental group were infused polypeptide through tail vein. The mice in the placebo group were injected saline with the same volume, once 1 day; Taxol group: 10 mg/kg, once 1 week; Endostar group: 2.5 mg/kg, once 1 day; The groups of high, intermediate and low polypeptide: 6, 3, 1.5 mg/kg, respectively, once 1 day. After administration, all mice were sacrificed. Stripped the tumors and weighed.
# [12] = system: human pancreatic cancer SW-1990 xenograft tumors; assay: Tumor growth inhibition, SW-1990 xenograft; settings: for Rate of inhibiting tumors / Tumor weight: Once 3 days
# Procedure: Picked the tumor tissue of vigorous growth and was cut into pieces of about 1.5 mm^3. Under sterile conditions, the tumor tissue was inoculated subcutaneously on the right of nude mice. Tumor diameter was measured with a Vernier caliper. The animals which had tumors with a size of 100-200 mm^3 were randomly divided into groups. The effect of polypeptide on anti-tumor was dynamically observed through the method of measuring tumor diameter. The times of measuring tumor diameter were once 2 days, and meantime, weighed mice. The mice in experimental group were infused polypeptide through tail vein, once 3 days. The mice in the placebo group were injected saline with the same volume.
# as §4
# TRTV:Treatment group RTV; CRTV: negative control group RTV
# [13] = Pharmacokinetics of mPEG-SC20k-HM-3 and HM-3 in rats (plasma concentration by ELISA); settings: SD rats, intravenous
# Procedure: as §2
# [14] = high, 36.7 mg/kg, listed as polypeptide
# [15] = intermediate, 18.75 mg/kg, listed as polypeptide
# [16] = low, 9.38 mg/kg, listed as polypeptide
# T2 sequence (P06756 31-889 limits assumed): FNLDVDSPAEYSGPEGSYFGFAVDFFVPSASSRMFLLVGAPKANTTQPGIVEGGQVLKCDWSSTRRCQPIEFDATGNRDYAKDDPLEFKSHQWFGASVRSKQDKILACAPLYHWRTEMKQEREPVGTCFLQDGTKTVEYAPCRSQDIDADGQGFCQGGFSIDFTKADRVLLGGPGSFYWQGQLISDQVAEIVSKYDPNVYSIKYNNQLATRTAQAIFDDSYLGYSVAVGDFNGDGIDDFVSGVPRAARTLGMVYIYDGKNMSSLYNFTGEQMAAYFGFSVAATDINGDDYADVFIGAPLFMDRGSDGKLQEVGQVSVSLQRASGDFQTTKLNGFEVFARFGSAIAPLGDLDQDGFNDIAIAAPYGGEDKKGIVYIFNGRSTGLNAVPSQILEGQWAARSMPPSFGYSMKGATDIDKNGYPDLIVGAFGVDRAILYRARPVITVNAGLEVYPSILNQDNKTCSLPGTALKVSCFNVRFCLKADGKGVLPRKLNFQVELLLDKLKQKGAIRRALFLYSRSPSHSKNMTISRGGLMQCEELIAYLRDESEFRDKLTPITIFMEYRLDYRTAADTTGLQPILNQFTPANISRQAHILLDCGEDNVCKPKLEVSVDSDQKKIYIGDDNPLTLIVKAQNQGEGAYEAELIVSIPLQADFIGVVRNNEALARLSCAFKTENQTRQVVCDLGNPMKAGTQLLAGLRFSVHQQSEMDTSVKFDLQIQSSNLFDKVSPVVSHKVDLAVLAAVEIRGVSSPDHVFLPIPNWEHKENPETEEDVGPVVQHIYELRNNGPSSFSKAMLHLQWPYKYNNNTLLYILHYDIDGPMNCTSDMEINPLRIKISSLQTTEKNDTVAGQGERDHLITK
# T2 sequence (P06756 891-1048 partner limits assumed): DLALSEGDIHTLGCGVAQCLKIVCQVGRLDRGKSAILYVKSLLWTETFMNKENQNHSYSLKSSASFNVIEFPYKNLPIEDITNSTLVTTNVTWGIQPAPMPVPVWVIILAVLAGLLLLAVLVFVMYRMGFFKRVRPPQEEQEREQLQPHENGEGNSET
# T2 sequence (P05106 27-788): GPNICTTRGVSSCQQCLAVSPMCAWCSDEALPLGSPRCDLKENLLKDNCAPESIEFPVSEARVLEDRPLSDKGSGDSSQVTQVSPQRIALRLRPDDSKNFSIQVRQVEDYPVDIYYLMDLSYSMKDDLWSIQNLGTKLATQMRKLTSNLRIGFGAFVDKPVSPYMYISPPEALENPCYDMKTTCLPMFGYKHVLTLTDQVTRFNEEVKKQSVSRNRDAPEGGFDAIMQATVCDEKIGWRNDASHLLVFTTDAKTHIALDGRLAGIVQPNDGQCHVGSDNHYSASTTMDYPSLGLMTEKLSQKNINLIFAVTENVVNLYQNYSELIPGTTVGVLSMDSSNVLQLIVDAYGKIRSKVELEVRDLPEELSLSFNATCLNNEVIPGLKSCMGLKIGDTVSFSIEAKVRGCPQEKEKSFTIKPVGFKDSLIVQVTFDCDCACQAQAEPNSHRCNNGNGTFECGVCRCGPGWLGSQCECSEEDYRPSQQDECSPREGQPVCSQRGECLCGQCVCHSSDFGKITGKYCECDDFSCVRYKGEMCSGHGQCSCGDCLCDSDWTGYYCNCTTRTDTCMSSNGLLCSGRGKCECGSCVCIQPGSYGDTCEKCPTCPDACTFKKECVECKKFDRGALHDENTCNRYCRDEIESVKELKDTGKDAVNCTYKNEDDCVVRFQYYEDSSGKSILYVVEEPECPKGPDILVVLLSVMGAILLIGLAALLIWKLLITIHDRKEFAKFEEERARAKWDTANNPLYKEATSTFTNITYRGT
# T1 sequence (P08648 42-894 limits assumed): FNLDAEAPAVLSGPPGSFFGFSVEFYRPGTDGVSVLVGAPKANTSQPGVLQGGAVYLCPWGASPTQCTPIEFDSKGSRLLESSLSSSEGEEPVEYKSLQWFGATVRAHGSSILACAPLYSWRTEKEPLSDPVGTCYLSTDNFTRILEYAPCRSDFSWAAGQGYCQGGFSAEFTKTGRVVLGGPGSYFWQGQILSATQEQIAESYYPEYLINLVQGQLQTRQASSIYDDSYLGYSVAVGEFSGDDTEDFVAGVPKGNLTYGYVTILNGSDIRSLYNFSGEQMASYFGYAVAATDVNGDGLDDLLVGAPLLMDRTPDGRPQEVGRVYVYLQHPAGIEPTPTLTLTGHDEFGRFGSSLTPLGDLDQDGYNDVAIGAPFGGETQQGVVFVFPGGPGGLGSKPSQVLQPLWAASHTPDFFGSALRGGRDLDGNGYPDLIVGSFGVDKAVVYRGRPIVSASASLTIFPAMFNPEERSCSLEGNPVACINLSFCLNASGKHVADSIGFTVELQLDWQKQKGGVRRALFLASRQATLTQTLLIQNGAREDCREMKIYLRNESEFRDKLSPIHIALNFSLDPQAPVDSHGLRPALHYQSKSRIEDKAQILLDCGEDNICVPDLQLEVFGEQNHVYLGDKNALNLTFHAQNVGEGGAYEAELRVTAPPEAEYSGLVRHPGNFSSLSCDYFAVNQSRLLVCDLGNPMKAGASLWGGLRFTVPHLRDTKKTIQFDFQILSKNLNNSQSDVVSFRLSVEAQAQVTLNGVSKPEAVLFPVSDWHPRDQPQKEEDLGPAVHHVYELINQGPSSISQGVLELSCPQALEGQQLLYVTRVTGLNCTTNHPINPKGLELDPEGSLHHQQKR
# T1 sequence (P08648 895-1049 partner limits assumed): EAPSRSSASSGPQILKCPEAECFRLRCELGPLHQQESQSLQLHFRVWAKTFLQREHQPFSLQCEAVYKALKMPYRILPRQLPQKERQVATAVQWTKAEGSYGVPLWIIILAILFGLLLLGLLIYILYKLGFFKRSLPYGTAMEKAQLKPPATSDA
# T1 sequence (P05556 21-798): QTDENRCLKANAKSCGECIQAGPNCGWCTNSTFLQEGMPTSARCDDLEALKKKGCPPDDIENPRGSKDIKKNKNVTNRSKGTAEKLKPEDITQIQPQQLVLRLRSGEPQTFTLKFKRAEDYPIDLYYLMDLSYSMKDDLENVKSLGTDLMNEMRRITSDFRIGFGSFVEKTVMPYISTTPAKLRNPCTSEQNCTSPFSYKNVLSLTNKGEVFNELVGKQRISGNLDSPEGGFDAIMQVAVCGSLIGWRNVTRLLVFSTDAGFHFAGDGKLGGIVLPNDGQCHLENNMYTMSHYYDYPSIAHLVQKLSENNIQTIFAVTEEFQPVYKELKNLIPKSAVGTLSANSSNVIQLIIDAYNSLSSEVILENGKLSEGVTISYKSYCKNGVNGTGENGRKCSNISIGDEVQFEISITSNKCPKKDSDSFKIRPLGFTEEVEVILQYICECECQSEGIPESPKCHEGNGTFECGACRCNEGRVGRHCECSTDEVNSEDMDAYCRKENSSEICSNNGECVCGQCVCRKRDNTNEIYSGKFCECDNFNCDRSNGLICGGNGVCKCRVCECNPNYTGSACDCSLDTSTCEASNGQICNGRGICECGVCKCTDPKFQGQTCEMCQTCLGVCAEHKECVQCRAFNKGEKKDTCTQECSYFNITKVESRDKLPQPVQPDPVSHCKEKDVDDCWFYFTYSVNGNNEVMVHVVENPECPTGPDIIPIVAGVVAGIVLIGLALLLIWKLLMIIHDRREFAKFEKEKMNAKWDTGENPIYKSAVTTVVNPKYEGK
substance,measurement,setting,value
mPEG-SC20k-Ile-Val-Arg-Arg-Ala-Asp-Arg-Ala-Ala-Val-Pro-Gly-Gly-Gly-Gly-Arg-Gly-Asp ({mPEG‑SC20k}-IVRRADRAAVPGGGGRGD) [mPEG-SC20k-HM-3],binding to integrin α5β1,[1],able to bind
same,binding to integrin ανβ3,[2],able to bind
same,inhibition of tumor growth compared with negative control,"[3]; 36.7 mg/kg, P<0.05",significant inhibition role
same,Rate of inhibiting tumors,"[3]; high, 36.7 mg/kg",62.24%*
same,Tumor weight,"[3]; high, 36.7 mg/kg",0.183 g
same,Rate of inhibiting tumors,[3]; [14],62.24%
same,Rate of inhibiting tumors,"[3]; intermediate, 18.75 mg/kg",55.66%
same,Tumor weight,"[3]; intermediate, 18.75 mg/kg",0.318 g
same,Rate of inhibiting tumors,[3]; [15],55.66%
same,Rate of inhibiting tumors,"[3]; low, 9.38 mg/kg",50.16%
same,Tumor weight,"[3]; low, 9.38 mg/kg",0.406 g
same,Rate of inhibiting tumors,[3]; [16],50.16%
same,t1/2β,"[4]; both, SD",20.13 h
same,t1/2p,[4],20.13 h
same,t1/2β,[4],20.13 h
same,inhibition of tumor growth compared with negative control,"[5]; 36.7 mg/kg, P<0.05",significant inhibition role
same,Rate of inhibiting tumors,"[5]; high, 36.7 mg/kg",66.45%*
same,Tumor weight,"[5]; high, 36.7 mg/kg",0.266 g
same,Rate of inhibiting tumors,[5]; [14],66.45%
same,Rate of inhibiting tumors,"[5]; intermediate, 18.75 mg/kg",55.37%
same,Tumor weight,"[5]; intermediate, 18.75 mg/kg",0.354 g
same,Rate of inhibiting tumors,[5]; [15],55.37%
same,Rate of inhibiting tumors,"[5]; low, 9.38 mg/kg",54.28%
same,Tumor weight,"[5]; low, 9.38 mg/kg",0.363 g
same,Rate of inhibiting tumors,[5]; [16],54.28%
same,inhibition of tumor growth compared with negative control,"[6]; 36.7 mg/kg, P<0.05",significant inhibition role
same,Rate of inhibiting tumors,"[6]; high, 36.7 mg/kg",55.11%*
same,Tumor weight,"[6]; high, 36.7 mg/kg",0.424 g
same,Rate of inhibiting tumors,[6]; [14],55.11%
same,Rate of inhibiting tumors,"[6]; intermediate, 18.75 mg/kg",46.95%
same,Tumor weight,"[6]; intermediate, 18.75 mg/kg",0.501 g
same,Rate of inhibiting tumors,[6]; [15],46.95%
same,Rate of inhibiting tumors,"[6]; low, 9.38 mg/kg",39.00%
same,Tumor weight,"[6]; low, 9.38 mg/kg",0.576 g
same,Rate of inhibiting tumors,[6]; [16],39.00%
same,inhibition of tumor growth compared with negative control,"[7]; 36.7 mg/kg, P<0.05",significant inhibition role
same,Rate of inhibiting tumors,"[7]; high, 36.7 mg/kg",60.20%*
same,Tumor weight,"[7]; high, 36.7 mg/kg",0.802 g
same,Rate of inhibiting tumors,[7]; [14],60.20%
same,Rate of inhibiting tumors,"[7]; intermediate, 18.75 mg/kg",51.32%
same,Tumor weight,"[7]; intermediate, 18.75 mg/kg",0.981 g
same,Rate of inhibiting tumors,[7]; [15],51.32%
same,Rate of inhibiting tumors,"[7]; low, 9.38 mg/kg",50.99%
same,Tumor weight,"[7]; low, 9.38 mg/kg",0.988 g
same,Rate of inhibiting tumors,[7]; [16],50.99%
same,inhibition of tumor growth compared with negative control,"[8]; 36.7 mg/kg, P<0.05",significant inhibition role
same,Rate of inhibiting tumors,"[8]; high, 36.7 mg/kg",55.98%*
same,Tumor weight,"[8]; high, 36.7 mg/kg",0.493 g
same,Rate of inhibiting tumors,[8]; [14],55.98%
same,Rate of inhibiting tumors,"[8]; intermediate, 18.75 mg/kg",45.45%
same,Tumor weight,"[8]; intermediate, 18.75 mg/kg",0.611 g
same,Rate of inhibiting tumors,[8]; [15],45.45%
same,Rate of inhibiting tumors,"[8]; low, 9.38 mg/kg",37.05%
same,Tumor weight,"[8]; low, 9.38 mg/kg",0.705 g
same,Rate of inhibiting tumors,[8]; [16],37.05%
same,inhibition of tumor growth compared with negative control,"[9]; 36.7 mg/kg, P<0.05",significant inhibition role
same,toxic and side effects,"[9]; 36.7 mg/kg, compared with positive 5-Fu group",no obvious toxic and side effects
same,Rate of inhibiting tumors,"[9]; high, 36.7 mg/kg",67.63%*
same,Tumor weight,"[9]; high, 36.7 mg/kg",0.406 g
same,Rate of inhibiting tumors,[9]; [14],67.63%
same,Rate of inhibiting tumors,"[9]; intermediate, 18.75 mg/kg",60.56%
same,Tumor weight,"[9]; intermediate, 18.75 mg/kg",0.494 g
same,Rate of inhibiting tumors,[9]; [15],60.56%
same,Rate of inhibiting tumors,"[9]; low, 9.38 mg/kg",58.42%
same,Tumor weight,"[9]; low, 9.38 mg/kg",0.521 g
same,Rate of inhibiting tumors,[9]; [16],58.42%
same,inhibition of tumor growth compared with negative control,"[10]; 36.7 mg/kg, P<0.05",significant inhibition role
same,Rate of inhibiting tumors,"[10]; high, 36.7 mg/kg",73.42%*
same,Tumor weight,"[10]; high, 36.7 mg/kg",0.192 g
same,Rate of inhibiting tumors,[10]; [14],73.42%
same,Rate of inhibiting tumors,"[10]; intermediate, 18.75 mg/kg",69.86%
same,Tumor weight,"[10]; intermediate, 18.75 mg/kg",0.218 g
same,Rate of inhibiting tumors,[10]; [15],69.86%
same,Rate of inhibiting tumors,"[10]; low, 9.38 mg/kg",59.57%
same,Tumor weight,"[10]; low, 9.38 mg/kg",0.292 g
same,Rate of inhibiting tumors,[10]; [16],59.57%
same,inhibition of tumor growth compared with negative control,"[11]; 36.7 mg/kg, P<0.05",significant inhibition role
same,Rate of inhibiting tumors,"[11]; high, 36.7 mg/kg",63.42%*
same,Tumor weight,"[11]; high, 36.7 mg/kg",0.372 g
same,Rate of inhibiting tumors,[11]; [14],63.42%
same,Rate of inhibiting tumors,"[11]; intermediate, 18.75 mg/kg",54.24%
same,Tumor weight,"[11]; intermediate, 18.75 mg/kg",0.466 g
same,Rate of inhibiting tumors,[11]; [15],54.24%
same,Rate of inhibiting tumors,"[11]; low, 9.38 mg/kg",46.39%
same,Tumor weight,"[11]; low, 9.38 mg/kg",0.546 g
same,Rate of inhibiting tumors,[11]; [16],46.39%
same,inhibition of tumor growth compared with negative control,"[12]; 36.7 mg/kg, P<0.05",significant inhibition role
same,Rate of inhibiting tumors,"[12]; high, 36.7 mg/kg",67.76%*
same,Tumor weight,"[12]; high, 36.7 mg/kg",0.446 g
same,Rate of inhibiting tumors,[12]; [14],67.76%
same,Rate of inhibiting tumors,"[12]; intermediate, 18.75 mg/kg",64.55%
same,Tumor weight,"[12]; intermediate, 18.75 mg/kg",0.491 g
same,Rate of inhibiting tumors,[12]; [15],64.55%
same,Rate of inhibiting tumors,"[12]; low, 9.38 mg/kg",50.40%
same,Tumor weight,"[12]; low, 9.38 mg/kg",0.687 g
same,Rate of inhibiting tumors,[12]; [16],50.40%
same,CL,[13],0.118 mL/min/kg
